Reference: PubChem BioAssay AID977621 (Broad Institute, 2014)
Inconclusive results are not listed. Active and inactive are the calls of the source.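 The calls were made as follows: active = Wild-type ribosome reporter drop at least double the humanized mutant ribosome reporter drop, growth loss under a set limit; inconclusive = no clear call, values can overlap the other calls; inactive = the rest.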

system: E. coli wild-type GFP strain growth, fluorescence, 24 h; assay: wild-type E. coli growth inhibition versus H69 humanized strain – H69 mutant RFP, wild-type GFP, cherry-pick, dose response (AID 977621); conditions: not given;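 also: wild-type GFP and H69 mutant RFP strains grown together 50/50 in each well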

Structure (SMILES) | AC50
CCn1nc(C(=O)OCc2cccc(S(=O)(=O)N(C)C)c2)c2ccccc2c1=O | > 100 µM (inactive)
C[C@@H]1CCCCO[C@@H](CN(C)C(=O)c2ccccc2)[C@H](C)CN([C@@H](C)CO)C(=O)c2cc(NC(=O)Cc3ccccc3)ccc2O1 | > 100 µM (inactive)
CCNC(=O)C1(C)CCCN(Cc2cccc3ccccc23)C1 (centres undefined) | > 100 µM (inactive)
O=C(c1ccc(Cl)cc1)N1CCN(c2cccc3[nH]ccc23)CC1 | > 100 µM (inactive)
CCN(C(=O)COC(=O)c1cc(-c2cccs2)nc2ccccc12)C1CCS(=O)(=O)C1 (centres undefined) | > 100 µM (inactive)
Cc1ccccc1-n1ncc2c(SCC(=O)N3c4ccccc4CC3C)ncnc21 (centres undefined) | > 100 µM (inactive)
Cc1cc(C(=O)Nc2cccc3c2O[C@H](CN(C)S(=O)(=O)c2ccc(Cl)cc2)[C@H](C)CN([C@H](C)CO)C3=O)n(C)n1 | > 100 µM (inactive)
O=C(CSc1n[nH]c(=O)n1C1CC1)Nc1ccc(Cl)c(Cl)c1 | > 100 µM (inactive)
O=C(CN1CCC(n2nnc3cc(F)ccc32)CC1)N1CCc2ccccc2C1 | > 100 µM (inactive)
Cc1onc(-c2ccccc2)c1-c1nnc(-c2ccccc2C(F)(F)F)o1 | > 100 µM (inactive)
CCN(C(=O)COC(=O)CCc1ccccc1)c1ccccc1 | > 100 µM (inactive)
COc1ccc(CC(=O)NC(C)c2ccc3ccccc3c2)cc1 (centres undefined) | > 100 µM (inactive)
COc1ccc(Cl)cc1NC(=O)C1Cc2ccccc2CN1S(C)(=O)=O (centres undefined) | > 100 µM (inactive)
O=C(CCc1nc2ccccc2s1)OCC(=O)c1ccc[nH]1 | > 100 µM (inactive)
CCN(CC)CCN(C(=O)c1ccc2c(c1)OCCO2)c1nc2cc(C)cc(C)c2s1 | > 100 µM (inactive)
COc1ccc(NS(=O)(=O)c2ccc(Cl)c(NC(=O)c3ccccc3F)c2)cc1 | > 100 µM (inactive)
CC(C)CC#Cc1ccc2c(c1)O[C@@H](CN(C)Cc1ccccn1)[C@H](C)CN([C@H](C)CO)S2(=O)=O | > 100 µM (inactive)
COC(=O)c1c(C)oc(C)c1S(=O)(=O)Nc1ccc(C(C)C)cc1 | > 100 µM (inactive)
COc1ccc(C(=O)COC(=O)c2ccccc2O)c(OC)c1 | > 100 µM (inactive)
O=C(C[C@H]1CC[C@H]2[C@@H](COC[C@@H](O)CN2C(=O)Nc2ccc(Cl)cc2)O1)N1CCCCC1 | > 100 µM (inactive)
CCCc1nc2cc(C)c(Br)c(C)n2c1CC1CCCCC1 | > 100 µM (inactive)
CCCn1c(NCc2ccc3c(c2)OCO3)nc2ccccc21 | > 100 µM (inactive)

Structure (SMILES) | AC50
O=C(c1cc(COc2c(F)cccc2F)on1)N1C[C@H]2CC[C@H]1C2 | > 100 µM (inactive)
CCCCC(=O)N1CCN(c2nc3ccc(Br)cc3s2)CC1 | > 100 µM (inactive)
OCCCc1cn(-c2ccccc2)c2ccccc12 | > 100 µM (inactive)
O=C(N[C@@H](Cc1ccccc1)C(=O)OCc1ccccc1)c1nc[nH]c1C(=O)NC1CCNCC1 | > 100 µM (inactive)
Cc1cc(C(=O)COC(=O)c2ccc(Br)o2)c(C)n1C | > 100 µM (inactive)
Cc1ccc(CSCC(=O)N(C)CC(=O)Nc2ccccc2Cl)cc1 | > 100 µM (inactive)
CCOC(=O)c1ccc(CC(=O)c2oc3cc(O)ccc3c2C)o1 | > 100 µM (inactive)
COc1ccccc1NC(=O)CN1CCSc2ccccc21 | > 100 µM (inactive)
c1ccc(CN2CCN(C3CCCSc4ccccc43)CC2)cc1 (centres undefined) | > 100 µM (inactive)
COc1ccccc1CC(=O)NCCc1c[nH]c2ccccc12 | > 100 µM (inactive)
Nc1ccccc1Sc1ccc(C(F)(F)F)cc1[N+](=O)[O-] | > 100 µM (inactive)
CC(=O)Nc1ccc(NS(=O)(=O)c2ccc(Cl)s2)cc1 | > 100 µM (inactive)
CCOc1ccc(CCNC(=O)CCc2nc3ccccc3[nH]2)cc1OCC | > 100 µM (inactive)
O=C(Cc1cccnc1)N1CC(=O)N2[C@H](C1)[C@@H](c1ccc(C3=CCCCC3)cc1)[C@@H]2CO | > 100 µM (inactive)
COc1cc(NC(=O)C(c2ccccc2)c2ccccc2)c(C(=O)O)cc1OC | > 100 µM (inactive)
O=C(Nc1cccc(Cl)c1)N1C[C@H]2[C@@H](c3ccccc31)[C@@H](CO)N2C(=O)c1ccncc1 | > 100 µM (inactive)
CC1=Nc2cc(C(=O)NCC3CCCO3)ccc2Sc2ccc(Br)cc21 (centres undefined) | > 100 µM (inactive)
CC1(C(=O)NS(=O)(=O)c2ccc3c(c2)CCO3)CCN1C(=O)c1ccccc1CCc1ccccc1 (centres undefined) | > 100 µM (inactive)
O=C1c2ccccc2C(c2nnnn2Cc2ccccc2)N1CCc1ccc(O)cc1 (centres undefined) | > 100 µM (inactive)
O=C1NC(=O)C2(Cc3cc([N+](=O)[O-])ccc3N3CCN(C(=O)c4ccccc4)CC32)C(=O)N1 (centres undefined) | > 100 µM (inactive)
Cc1ccc2oc(C(=O)N(CCO)Cc3ccccc3)c(C)c2c1 | > 100 µM (inactive)
Fc1ccc(-c2nnc(-c3ccc4ccccc4c3)o2)cc1 | > 100 µM (inactive)

Structure (SMILES) | AC50
CCc1ccc(NC(=O)COC(=O)CCCC2=NS(=O)(=O)c3ccccc3N2)cc1 | > 100 µM (inactive)
CC(=O)N1c2c(cc(Br)cc2S(=O)(=O)N2CCCCC2)CC1C (centres undefined) | > 100 µM (inactive)
CCOc1ccc(OCC)c(NC(=O)CSc2nc3cccnc3n2C)c1 | > 100 µM (inactive)
CN(C)C(CNS(=O)(=O)c1cc([N+](=O)[O-])ccc1Cl)c1ccco1 (centres undefined) | > 100 µM (inactive)
COc1ccc(C)c2sc(N(CCN(C)C)C(=O)c3ccc(S(=O)(=O)N(C)c4ccccc4)cc3)nc12 | > 100 µM (inactive)
Cc1ccc(NC(=O)c2c(C)noc2-c2snnc2C)cc1 | > 100 µM (inactive)
Cc1ccc(OCc2nc(C#N)c(N3CCCCC3)o2)cc1 | > 100 µM (inactive)
CCOC(=O)c1nc(C)sc1-c1ccnn1S(=O)(=O)c1ccc(C)cc1 | > 100 µM (inactive)
Cc1ccc(NC(=O)c2ccc([N+](=O)[O-])o2)c(C)c1 | > 100 µM (inactive)
Cc1cc(C)nc(SCc2cn3c(C)cccc3n2)n1 | > 100 µM (inactive)
C[C@@H]1CCCCO[C@@H](CN(C)C(=O)c2ccccc2)[C@H](C)CN([C@@H](C)CO)C(=O)c2cc(NC(=O)c3ccccc3)ccc2O1 | > 100 µM (inactive)
CC(C)(C)c1ccc(CCC2OCC(CN3CCOCC3)O2)cc1 (centres undefined) | > 100 µM (inactive)
O=C(Cn1cnc2ccccc21)c1ccc(Br)cc1 | > 100 µM (inactive)
Cc1n[nH]c(C)c1S(=O)(=O)N1CCCC(C(=O)Nc2ccc(Br)cc2)C1 (centres undefined) | > 100 µM (inactive)
Fc1cccc(Cc2noc(CN3CCCCC3CCc3ccccn3)n2)c1 (centres undefined) | > 100 µM (inactive)
Cc1ccc(C2(c3noc(CN(C)Cc4cccnc4)n3)CCCC2)cc1 | > 100 µM (inactive)
CCN(c1cccc2ccccc12)S(=O)(=O)c1ccc(Cl)nc1 | > 100 µM (inactive)
N#Cc1nc(Cc2ccccc2)oc1N1CCCC1 | > 100 µM (inactive)
COc1ccc([C@H]2C[C@H](O)C[C@@H](CCn3cc(-c4ccccc4)nn3)O2)cc1 | > 100 µM (inactive)
Cn1cnc(CCNC(=O)C[C@H]2CC[C@@H]3[C@H](COC[C@H](O)CN3C(=O)Nc3ccc(Cl)cc3)O2)c1 | > 100 µM (inactive)
CSc1ccccc1C(=O)NCCc1ccc(S(=O)(=O)N2CCCCC2)cc1 | > 100 µM (inactive)

same assay, conditions: E. coli mixed culture, 24 h; measured here: total growth OD600, test 2

Structure (SMILES) | AC50 [µM]
CCn1nc(C(=O)OCc2cccc(S(=O)(=O)N(C)C)c2)c2ccccc2c1=O | > 100
C[C@@H]1CCCCO[C@@H](CN(C)C(=O)c2ccccc2)[C@H](C)CN([C@@H](C)CO)C(=O)c2cc(NC(=O)Cc3ccccc3)ccc2O1 | > 100
CCNC(=O)C1(C)CCCN(Cc2cccc3ccccc23)C1 (centres undefined) | > 100
CCN(c1ccccc1)S(=O)(=O)c1ccc(Cl)c(C(=O)NCc2ccco2)c1 | 33.8
CC(C)(C)NC(=O)C(c1ccncc1)N(Cc1ccc(F)cc1)C(=O)c1ccc(-c2ccccc2)[nH]1 (centres undefined) | > 100
CC1=CC(C)(C)N(C(=O)CSc2nnc(C)s2)c2ccc(C)cc21 | > 100
Cc1nnc2sc(SCC(=O)Nc3ccc(Br)cc3)nn2c1=O | > 100
O=C(COC(=O)C1CC1)Nc1nc(-c2ccc(F)c(F)c2)cs1 | > 100
CCN(C(=O)COC(=O)CCc1ccccc1)c1ccccc1 | > 100
C=CCN(c1ccccc1)S(=O)(=O)c1cccc2cccnc12 | > 100
CCOc1ccccc1/C=C/c1cc(C(=O)O)c2ccccc2n1 | 35.3
COC(=O)c1c(C)oc(C)c1S(=O)(=O)Nc1ccc(C(C)C)cc1 | 51.5
CCCc1nc2cc(C)c(Br)c(C)n2c1CC1CCCCC1 | 48.9
CCCn1c(NCc2ccc3c(c2)OCO3)nc2ccccc21 | 49.9
Cc1ccc(S(=O)(=O)N2CCCCC2C(=O)N2CCN(c3ccccc3F)CC2)cc1 (centres undefined) | > 100
O=C1OC[C@@H]2CCCN2C(=O)[C@@H](CC(=O)N(CCO)Cc2ccccc2)C/C=C\C[C@H]1Cc1ccc(F)cc1 | > 100
O=c1[nH]nc(SCc2ccccc2)n1C1CC2C=CC1C2 (centres undefined) | 40.6
CCCCC(=O)N1CCN(c2nc3ccc(Br)cc3s2)CC1 | 31
Cc1noc(C)c1NC(=O)Nc1ccc2c(c1)C(=O)N([C@H](C)CO)C[C@H](C)[C@@H](CN(C)C(=O)Nc1ccc3c(c1)OCO3)OCCCC[C@@H](C)O2 | > 92
Cc1ccc(-c2nc(CN3CCCCC3c3cccc(F)c3)c(C)o2)o1 (centres undefined) | > 100
CS(=O)(=O)N(CC(=O)N1CCc2ccccc2C1)c1cccc(Br)c1 | > 100
Cc1cc(C(=O)COC(=O)c2ccc(Br)o2)c(C)n1C | 48.4

Structure (SMILES) | AC50 [µM]
O=S(=O)(c1ccccc1)N1CC[C@@H]2[C@H](CO)Nc3ccc(Br)cc3[C@@H]21 | 43.4
c1ccc(CN2CCN(C3CCCSc4ccccc43)CC2)cc1 (centres undefined) | 49.8
CCOc1ccc(CCNC(=O)CCc2nc3ccccc3[nH]2)cc1OCC | > 100
O=C(Nc1ccn(Cc2ccc(Cl)cc2)n1)c1ccccc1 | > 100
CC(=O)Nc1ccc(-c2ccnc3c2CC(C)(C(=O)Nc2ccc4c(c2)OCO4)O3)cc1 (centres undefined) | > 100
O=C(Cc1cccnc1)N1CC(=O)N2[C@H](C1)[C@@H](c1ccc(C3=CCCCC3)cc1)[C@@H]2CO | > 100
COc1ccc(OC)c(-c2csc(NC(=O)C3COc4ccccc4O3)n2)c1 (centres undefined) | > 100
Cc1onc(-c2c(F)cccc2Cl)c1C(=O)c1ccccc1O | 42.4
CCc1cc(C(=O)N2CCCC(C(=O)c3cccc4ccccc34)C2)n(C)n1 (centres undefined) | > 100
O=C(COC(=O)CCC(=O)c1ccc(F)cc1)Nc1cccc(S(=O)(=O)N2CCCC2)c1 | > 100
Cc1ccc2oc(C(=O)N(CCO)Cc3ccccc3)c(C)c2c1 | 32.4
Fc1ccc(-c2nnc(-c3ccc4ccccc4c3)o2)cc1 | > 100
CCOc1ccc(OCC)c(NC(=O)CSc2nc3cccnc3n2C)c1 | 36.6
Cc1nc(SCC(=O)Nc2ccc3c(c2)OCCO3)nc(C)c1C | 43.7
Cc1ccc(OCc2nc(C#N)c(N3CCCCC3)o2)cc1 | 42.7
CC1CCCN(c2ccc(C(=O)NCCc3ccccc3)cn2)C1 (centres undefined) | > 100
COc1cc2cc(C(=O)Nc3ccc4c(c3)OCCO4)[nH]c2cc1OC | > 100
COc1ccc(NC(=O)CCS(=O)(=O)c2ccccc2Cl)cc1S(=O)(=O)Nc1ccc(Cl)cc1 | > 100
Fc1cccc(Cc2noc(CN3CCCCC3CCc3ccccn3)n2)c1 (centres undefined) | > 100
COc1ccc(N(CCC(=O)O)S(=O)(=O)c2ccc(C)cc2C)cc1 | > 100
O=C(CSc1nnc(-c2ccccc2F)n1C1CC1)Nc1cccnc1Cl | > 100
COc1ccc([C@H]2C[C@H](O)C[C@@H](CCn3cc(-c4ccccc4)nn3)O2)cc1 | > 100
